Measured values from patent US20250136576A1, “Heterocyclic Compounds and Uses Thereof” (ACEA Therapeutics, Inc., priority 2021, published 2025).
Read-outs that look alike come from different tables or passages of the source.

System: KM12-luc cells
Assay: Cell proliferation and growth inhibition assay (CCK-8) in KM12-luc
Assay type: cell-based
Details: read-out: NTRK IC50 in KM12-luc
Description: MV-4-11 and H1975 cells were obtained from the American Type Culture Collection and KM12-luc cells were obtained from JCRB Cell Bank. All cell lines were maintained at 37° C. with 5% C02, in media supplemented with 10% fetal bovine serum and penicillin (100 units/mL) and streptomycin (100 μg/mL). MV-4-11 cells were maintained in Iscove's Modified Dubecco's Medium, H1975 cells were cultured with RPMI 1640 media, and KM12-luc cells were maintained in Dulbecco's Modification of Eagle's Medium. CCK-8 reagent was obtained from Yeasen. Cell proliferation was assessed by CCK-8 assay (Yeasen) per the manufacturer's instructions. […] Cell viability was assayed by incubating the cells with CCK-8 reagent for 1-4 hrs. Absorbance was measured at OD450 using the Beckman DTX880. The data was calculated using GraphPad Prism version 6.01. The IC50 values were fitted using a non-linear regression model with a sigmoidal dose response.

[1] = KM12-Luc, 72 h, KM12-luc cells, treated with test compounds for 72 hrs, CCK-8 viability
[2] = KM12-luc cells, treated with test compounds for 72 hrs, CCK-8 viability

SMILES | IC50 [1] [nM] | IC50 (KM12-Luc, 72 h) [nM] | also measured
CN(C)CCN(C)c1ccc(Nc2nc(-c3cn(C)c4ccccc34)c3cc[nH]c3n2)cc1NS(C)(=O)=O [Compound 205c, N-(2-((2-(dimethylamino)ethyl)(methyl)amino)-5-((4-(1-methyl-1H-indol-3-yl)-7H-pyrrolo[2,3-d]pyrimidin-2-yl)amino)phenyl)methanesulfonamide] | 329 |  | 
CN(C)CCN(C)c1ccc(Nc2nc(-c3cn(C)c4ccccc34)c3cc[nH]c3n2)cc1S(C)(=O)=O [Compound 206, N^1-(2-(dimethylamino)ethyl)-N^1-methyl-N^4-(4-(1-methyl-1H-indol-3-yl)-7H-pyrrolo[2,3-d]pyrimidin-2-yl)-2-(methylsulfonyl)benzene-1,4-diamine] | 176 |  | 
CN(C)CCN(C)c1ccc(Nc2nc(-c3cn(C)c4ccccc34)c3cc[nH]c3n2)cc1N(C)C [Compound 207, N^1-(2-(dimethylamino)ethyl)-N^1,N^2,N^2-trimethyl-N^4-(4-(1-methyl-1H-indol-3-yl)-7H-pyrrolo[2,3-d]pyrimidin-2-yl)benzene-1,2,4-triamine] | 348 |  | 
CCN(CCN(C)C)c1ccc(Nc2nc(-c3cn(C)c4ccccc34)c3cc[nH]c3n2)cc1F [Compound 208, N^1-(2-(dimethylamino)ethyl)-N^1-ethyl-2-fluoro-N^4-(4-(1-methyl-1H-indol-3-yl)-7H-pyrrolo[2,3-d]pyrimidin-2-yl)benzene-1,4-diamine] | 381 |  | 
CCN(CCN(C)C)c1ccc(Nc2nc(-c3cn(C)c4ccccc34)c3cc[nH]c3n2)cc1N [Compound 211, N^1-(2-(dimethylamino)ethyl)-N^1-ethyl-N^4-(4-(1-methyl-1H-indol-3-yl)-7H-pyrrolo[2,3-d]pyrimidin-2-yl)benzene-1,2,4-triamine] | 40.3 |  | 
C=CC(=O)Nc1cc(Nc2nc(-c3cn(C)c4ccccc34)c3cc[nH]c3n2)ccc1N(CC)CCN(C)C [Compound 212a, N-(2-((2-(dimethylamino)ethyl)(ethyl)amino)-5-((4-(1-methyl-1H-indol-3-yl)-7H-pyrrolo[2,3-d]pyrimidin-2-yl)amino)phenyl)acrylamide] | 62.7 |  | 
CCN(CCN(C)C)c1ccc(Nc2nc(-c3cn(C)c4ccccc34)c3cc[nH]c3n2)cc1NC(C)=O [Compound 212c, N-(2-((2-(dimethylamino)ethyl)(ethyl)amino)-5-((4-(1-methyl-1H-indol-3-yl)-7H-pyrrolo[2,3-d]pyrimidin-2-yl)amino)phenyl)acetamide] |  | 43.2 | 
CCN(CCN(C)C)c1ccc(Nc2nc(-c3cn(C)c4ccccc34)c3cc[nH]c3n2)cc1NC(=O)C(C)C [Compound 212d, N-(2-((2-(dimethylamino)ethyl)(ethyl)amino)-5-((4-(1-methyl-1H-indol-3-yl)-7H-pyrrolo[2,3-d]pyrimidin-2-yl)amino)phenyl)isobutyramide] | 93.1 |  | 
CCN(CCN(C)C)c1ccc(Nc2nc(-c3cn(C)c4ccccc34)c3cc[nH]c3n2)cc1NCCF [Compound 212e, N^1-(2-(dimethylamino)ethyl)-N^1-ethyl-N^2-(2-fluoroethyl)-N^4-(4-(1-methyl-1H-indol-3-yl)-7H-pyrrolo[2,3-d]pyrimidin-2-yl)benzene-1,2,4-triamine] | 3360 |  | 
CCNc1cc(Nc2nc(-c3cn(C)c4ccccc34)c3cc[nH]c3n2)ccc1N(CC)CCN(C)C [Compound 212f, N^1-(2-(dimethylamino)ethyl)-N^1,N^2-diethyl-N^4-(4-(1-methyl-1H-indol-3-yl)-7H-pyrrolo[2,3-d]pyrimidin-2-yl)benzene-1,2,4-triamine] |  | 546 | 
CC(=O)Nc1cc(Nc2nc(-c3c[nH]c4cccc(F)c34)c3cc[nH]c3n2)ccc1N(C)CCN(C)C [Compound 216, N-(2-((2-(dimethylamino)ethyl)(methyl)amino)-5-((4-(4-fluoro-1H-indol-3-yl)-7H-pyrrolo[2,3-d]pyrimidin-2-yl)amino)phenyl)acetamide] | 49.7 |  | 
CC(=O)Nc1cc(Nc2nc(-c3cn(C)c4cccc(F)c34)c3cc[nH]c3n2)ccc1N(C)CCN(C)C [Compound 218, N-(2-((2-(dimethylamino)ethyl)(methyl)amino)-5-((4-(4-fluoro-1-methyl-1H-indol-3-yl)-7H-pyrrolo[2,3-d]pyrimidin-2-yl)amino)phenyl)acetamide] | 103 |  | 
CCN(CCN(C)C)c1cc(F)c(Nc2nc(-c3cn(C)c4cccc(F)c34)c3cc[nH]c3n2)cc1NC(C)=O [Compound 222, N-(2-((2-(dimethylamino)ethyl)(ethyl)amino)-4-fluoro-5-((4-(4-fluoro-1-methyl-1H-indol-3-yl)-7H-pyrrolo[2,3-d]pyrimidin-2-yl)amino)phenyl)acetamide] | 1440 |  | 
CC(=O)Nc1cc(Nc2nc(-c3cn(C)c4ccc(F)cc34)c3cc[nH]c3n2)ccc1N(C)CCN(C)C [Compound 227a, N-(2-((2-(dimethylamino)ethyl)(methyl)amino)-5-((4-(5-fluoro-1-methyl-1H-indol-3-yl)-7H-pyrrolo[2,3-d]pyrimidin-2-yl)amino)phenyl)acetamide] |  | 578 | 
CCNc1cc(Nc2nc(-c3cn(C)c4ccc(F)cc34)c3cc[nH]c3n2)ccc1N(C)CCN(C)C [Compound 227b, N^1-(2-(dimethylamino)ethyl)-N^2-ethyl-N^4-(4-(5-fluoro-1-methyl-1H-indol-3-yl)-7H-pyrrolo[2,3-d]pyrimidin-2-yl)-N^1-methylbenzene-1,2,4-triamine] |  | 672 | 
CCN(CCN(C)C)c1ccc(Nc2nc(-c3cn(C)c4ccc(F)cc34)c3cc[nH]c3n2)cc1NC(C)=O [Compound 227c, N-(2-((2-(dimethylamino)ethyl)(ethyl)amino)-5-((4-(5-fluoro-1-methyl-1H-indol-3-yl)-7H-pyrrolo[2,3-d]pyrimidin-2-yl)amino)phenyl)acetamide] |  | 436 | 
CCNc1cc(Nc2nc(-c3cn(C)c4ccc(F)cc34)c3cc[nH]c3n2)ccc1N(CC)CCN(C)C [Compound 227d, N^1-(2-(dimethylamino)ethyl)-N^1,N^2-diethyl-N^4-(4-(5-fluoro-1-methyl-1H-indol-3-yl)-7H-pyrrolo[2,3-d]pyrimidin-2-yl)benzene-1,2,4-triamine] |  | 2010 | 
CC(=O)Nc1cc(Nc2nc(-c3cn(C)c4cc(F)ccc34)c3cc[nH]c3n2)ccc1N(C)CCN(C)C [Compound 232a, N-(2-((2-(dimethylamino)ethyl)(methyl)amino)-5-((4-(6-fluoro-1-methyl-1H-indol-3-yl)-7H-pyrrolo[2,3-d]pyrimidin-2-yl)amino)phenyl)acetamide] |  | 85.5 | 
CCNc1cc(Nc2nc(-c3cn(C)c4cc(F)ccc34)c3cc[nH]c3n2)ccc1N(C)CCN(C)C [Compound 232b, N^1-(2-(dimethylamino)ethyl)-N^2-ethyl-N^4-(4-(6-fluoro-1-methyl-1H-indol-3-yl)-7H-pyrrolo[2,3-d]pyrimidin-2-yl)-N^1-methylbenzene-1,2,4-triamine] |  | 492 | 
CC(=O)Nc1cc(Nc2nc(-c3cn(C)c4cc(F)c(F)cc34)c3cc[nH]c3n2)ccc1N(C)CCN(C)C [Compound 237, N-(5-((4-(5,6-difluoro-1-methyl-1H-indol-3-yl)-7H-pyrrolo[2,3-d]pyrimidin-2-yl)amino)-2-((2-(dimethylamino)ethyl)(methyl)amino)phenyl)acetamide] | 537 |  | 
Cc1ccc2[nH]cc(-c3nc(Nc4ccc(N(C)CCN(C)C)c(N(C)C)c4)nc4[nH]ccc34)c2c1 [Compound 239, N^1-(2-(dimethylamino)ethyl)-N^1,N^2,N^2-trimethyl-N^4-(4-(5-methyl-1H-indol-3-yl)-7H-pyrrolo[2,3-d]pyrimidin-2-yl)benzene-1,2,4-triamine] | 518 |  | 
CC(=O)Nc1cc(Nc2nc(-c3cn(C)c4ccc(C)cc34)c3cc[nH]c3n2)ccc1N(C)CCN(C)C [Compound 244, N-(5-((4-(1,5-dimethyl-1H-indol-3-yl)-7H-pyrrolo[2,3-d]pyrimidin-2-yl)amino)-2-((2-(dimethylamino)ethyl)(methyl)amino)phenyl)acetamide] | 348 |  | 
CCn1cc(-c2nc(Nc3ccc(N(C)CCN(C)C)c(NC(C)=O)c3)nc3[nH]ccc23)c2cc(F)ccc21 [Compound 246, N-(2-((2-(dimethylamino)ethyl)(methyl)amino)-5-((4-(1-ethyl-5-fluoro-1H-indol-3-yl)-7H-pyrrolo[2,3-d]pyrimidin-2-yl)amino)phenyl)acetamide] | 69.9 |  | 
CC(=O)Nc1cc(Nc2nc(-c3cn(C)c4ccccc34)c3c(F)c[nH]c3n2)ccc1N(C)CCN(C)C [Compound 253, N-(2-((2-(dimethylamino)ethyl)(methyl)amino)-5-((5-fluoro-4-(1-methyl-1H-indol-3-yl)-7H-pyrrolo[2,3-d]pyrimidin-2-yl)amino)phenyl)acetamide] | 97.5 |  | 
CC(=O)Nc1cc(Nc2nc(-c3cn(C)nc3C)c3cc[nH]c3n2)ccc1N(C)CCN(C)C [Compound 255a, N-(5-(4-(1,3-dimethyl-1H-pyrazol-4-yl)-7H-pyrrolo[2,3-d]pyrimidin-2-ylamino)-2-((2-(dimethylamino)ethyl)(methyl)amino)phenyl)acetamide] |  |  | IC50 [2]: 246 nM
CC(=O)Nc1cc(Nc2nc(-c3cn(C)nc3C)c3cc[nH]c3n2)ccc1N(C)CCN(C)C [Compound 255b, N-(5-(4-(1,3-dimethyl-1H-pyrazol-4-yl)-7H-pyrrolo[2,3-d]pyrimidin-2-ylamino)-2-((2-(dimethylamino)ethyl)(methyl)amino)phenyl)acetamide] |  |  | IC50 [2]: > 10000 nM
